Our source for the melting point values is patent US20080255078A1, “Triphenylethylene Compounds Useful as Selective Estrogen Receptor Modulators” (priority 2005, published 2008).

`CCC(=C(c1ccc(O)cc1)c1ccc(O)cc1)c1cccc(/C=C/C(=O)O)c1` [Example 1, (2E)-3-{3-[1-Ethyl-2,2-bis(4-hydroxyphenyl)ethenyl]phenyl}-2-propenoic acid]: the melting point was in the range of 280 to 281 °C.

Regarding `CCC(=C(c1ccc(O)cc1)c1ccc(O)cc1)c1cccc(-c2c(C)noc2C)c1` [Example 3, 4,4′-{2-[3-(3,5-Dimethyl-4-isoxazolyl)phenyl]-1-butene-1,1-diyl}diphenol], the melting point was in the range of 173 to 174 °C.
